Laboratory results reported in patent US20060019907A1, “Guggulsterone: an inhibitor of nuclear factor - kappaB and IkappaBalpha kinase activation and uses thereof” (Research Development Foundation, priority 2004, published 2006).

What was measured:
IKK = assay: RANKL-induced IKK activity, IKK assay; assay type: cell-based, mouse; details: RAW 264.7
IκBα [1] = assay: TNF-dependent IκBα degradation and phosphorylation, Western blot; assay type: cell-based, human; details: H1299; 50 μM, 4 hours, 0.1 nM TNF
Method: Western Blot Analysis: To determine the effect of guggulsterone on TNF-dependent IκBα phosphorylation, IκBα degradation, p65 translocation and p65 phosphorylation, cytoplasmic extracts were prepared as previously described (Majumdar et al., 2001) from H1299 (2×10^6/ml) pretreated with 50 μM guggulsterone for 4 h and then exposed to 0.1 nM TNF for various times. Thirty micrograms of cytoplasmic protein was resolved on 10% SDS-PAGE gel, transferred to a nitrocellulose membrane, blocked with 5% non-fat milk, and probed with specific antibody against IκBα, posphorylated IκBα, p65 and phosphorylated p65. To determine the expression of cyclin D1, COX-2, MMP-9, clAP-1, xlAP, TRAF1, Bcl-2, Bfl-1, cFLIP, and survivin, whole-cell extracts were prepared from treated cells (2×10^6 cells in 2 ml medium), 30-50 μg protein was resolved on SDS-PAGE gel and probed by Western blot with specific antibodies as per manufacturer's recommended protocol. The blots were washed, exposed to HRP-conjugated secondary antibodies for 1 hour, and finally detected by ECL reagent (Amersham Pharmacia Biotech.). The bands were quantitated using a Personal Densitometer Scan v1.30 using IMAGEQUANT™ software version 3.3 (Molecular Dynamics).

PARP = PARP cleavage assay, TNF plus guggulsterone; assay type: cell-based, human; details: KBM-5, serum starved 24 hours; TNF in combination with guggulsterone
Method: PARP cleavage assay: For detection of cleavage products of PARP, whole-cell extracts were prepared by subjecting the guggulsterone-treated cells to lysis in lysis buffer (20 mM Tris, pH 7.4; 250 mM NaCI; 2 mM EDTA, pH 8.0; 0.1% Triton-X 100; 0.01 μg/ml aprotinin; 0.005 μg/ml leupeptin; 0.4 mM PMSF; and 4 mM NaVO4). Lysates will be spun at 14000 rpm for 10 min to remove insoluble material, resolved by 10% SDS PAGE, and probed with PARP antibodies. PARP is cleaved from the 116-kDa intact protein into 85-kDa and […] peptide products. To detect cleavage products of procaspase-3 and procaspase-9, whole-cell extracts will be resolved by 10% SDS PAGE and probed with appropriate antibodies.

IκBα [2] = assay: RANKL-induced IκBα phosphorylation and degradation, Western blot; assay type: cell-based, mouse; details: RAW 264.7
Method: Western blot analysis. To determine the levels of protein expression in the cytoplasm or nucleus, extracts were prepared (Majumder and Aggarwal, 2001) and fractionated by SDS-polyacrylamide gel electrophoresis (PAGE). After electrophoresis, the proteins were electrotransferred to nitrocellulose membranes, blotted with each antibody, and detected by ECL regent (Amersham, Piscataway, N.J.). The bands obtained were quantitated using NIH imaging software (NIH, Bethesda, Md.).

JNK = JNK assay in MKK4 mutants and wild type cells; assay type: cell-based; details: 10 μM
Method: JNK kinase assay. To determine the effect of guggulsterone on the kinase activity of JNK, JNK complex from whole-cell extracts was precipitated with antibody against JNK1, followed by treatment with protein A/G-Sepharose beads (Pierce, Rockford, Ill.). After 2 h of incubation, the beads were washed with lysis buffer and then assayed in kinase assay mixture containing 50 mM HEPES (pH 7.4), 20 mM MgCl2, 2 mM dithiothreitol, 20 μCi of [γ-^32P]ATP, 10 μM unlabeled ATP, and 2 μg of substrate GST-c-Jun (1-79). The immunocomplex was incubated at 30° C. for 30 min and then boiled with SDS sample buffer for 5 min. Finally, the protein was resolved on 10% SDS-PAGE, the gel was dried, and the radioactive bands were visualized using the PhosphorImager. To determine the total amount of JNK1 in each sample, whole-cell extracts were subjected to Western blot analysis using anti-JNK1 antibody.

STAT3 = assay: Constitutive STAT3 phosphorylation in U266 cells, Western blot; assay type: cell-based, human
Method: Western blot. For detection of STAT proteins, whole-cell extracts were prepared by lysing the guggulsterone-treated cells in lysis buffer (20 mM Tris, pH 7.4, 250 mM NaCl, 2 mM EDTA, pH 8.0, 0.1% Triton −X100, 0.01 mg/ml aprotinin, 0.005 mg/ml leupeptin, 0.4 mM PMSF, and 4 mM NaVO4). Lysates were then spun at 14,000 rpm for 10 min to remove insoluble material, and resolved on a 7.5% gel. After electrophoresis, the proteins were electrotransferred to a nitrocellulose membrane, blocked with 5% nonfat milk, and probed with anti-STAT antibodies (1:1000) overnight at 4° C. The blot was washed, exposed to HRP-conjugated secondary antibodies for 1 h, and finally examined by chemiluminescence (ECL, Amersham Pharmacia Biotech. Arlington Heights, Ill.).

RAW 264.7 cells = assay: Tumor cell (MDA-MB-468, U266) co-incubation-induced osteoclastogenesis; assay type: cell-based, mouse; details: RAW 264.7 co-incubation, GS 5 μM
Akt = Akt activation in U937 cells, Western blot; assay type: cell-based, human; details: 10 μM
Method: Western blot analysis. Thirty to fifty micrograms of cytoplasmic, nuclear or whole cell protein was resolved on 10% SDS-PAGE gel, transferred to a nitrocellulose membrane, blocked with 5% non-fat milk, and probed with specific antibodies as per manufacturer's recommended protocol. The blots were washed, exposed to HRP-conjugated secondary antibodies for 1 h, and detected by ECL reagent (Amersham Pharmacia Biotechnology, Piscataway, N.J.). The bands were quantitated using a Personal Densitometer Scan v1.30 using Imagequant software version 3.3 (Molecular Dynamics).

[3] = 50 μM, 4 h pre-incubation, 10 nM RANKL

CC=C1C(=O)C[C@H]2[C@@H]3CCC4=CC(=O)CC[C@]4(C)[C@H]3CC[C@]12C [guggulsterone, 4,17(20)-pregnadiene-3,16-dione]
RANKL-induced IKK activity (phosphorylation of GST-IκBα) (IKK; [3]): could not phosphorylate GST-IκBα upon RANKL treatment | expression of IKK-α and IKK-β (IKK; Western blot): did not alter the expression of IKK-α and IKK-β | TNF-induced IκBα degradation (IκBα [1]): TNF had no effect on IκBα degradation | TNF-induced IκBα phosphorylation (IκBα [1]): almost completely suppressed IκBα phosphorylation | caspase-induced cleavage of PARP activated by TNF (PARP): enhanced the caspase-induced cleavage of PARP activated by TNF | phosphorylation of IκBα by GS alone (IκBα [2]): did not result in phosphorylation of IκBα | RANKL-induced IκBα degradation (IκBα [2]; [3]): suppressed RANKL-induced IκBα degradation | RANKL-induced phosphorylation of IκBα (IκBα [2]; [3]): eliminated the RANKL-induced phosphorylation | expression of IκBα (IκBα to β-actin ratio) (IκBα [2]; GS treatment): down-regulates the expression of IκBα | guggulsterone induced JNK activation, dependence on MKK4 (JNK): MKK4 is required for guggulsterone induced JNK activation | overall expression of STAT3 protein (STAT3): did not alter the overall expression of STAT3 protein | earliest time at which inhibition of constitutive STAT3 phosphorylation is observed (STAT3; 25 μM): 4 h | lowest concentration at which inhibition of constitutive STAT3 phosphorylation is observed (STAT3; 4 h): 25 µM | constitutively active (phosphorylated) STAT3 (STAT3; time- and dose-dependent): inhibited the constitutively active STAT3 | osteoclast differentiation induced by co-incubation of U266 cells with macrophages (RAW 264.7 cells): induced osteoclast differentiation was suppressed | MDA-MB-468 cells-induced and U266 cells-induced osteoclast differentiation (RAW 264.7 cells; 5 days): suppressed osteoclastogenesis | Akt activation (Akt): suppression of Akt-activation
